Assay results: PubChem BioAssay AID1259411 (Chemical Carcinogenesis Research Information System (CCRIS), 2018)
Active and inactive are the calls of the source. No rule for the calls is given here.

System: rodent carcinogenicity bioassays, tumor incidence
Test: CCRIS carcinogenicity studies
Method in brief: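 Archive of carcinogenicity, mutagenicity, tumor promotion and tumor inhibition results drawn from journals, NCI reports and other sources, expert-reviewed; covers 1985-2011 and is no longer updated.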

[Cl][Cd][Cl]
carcinogen call (Species: HAMSTER, Strain/Sex: SYRIAN/FEMALE, Route: INHALATION, Dose: 0, 30 UG/M3 19 HR/D 5 D/WK FOR 65 WK FOR A TOTAL CADMIUM DOSE OF 0, 180 MG/M3 (STUDY DURATION: 76 WK), Dose: 0, 30 UG/M3 19 HR/D 5 D/WK FOR 65 WK FOR A TOTAL CADMIUM DOSE OF 0, 180 MG/M3 (STUDY DURATION: 76 WK)): inactive; negative | carcinogen call (Species: HAMSTER, Strain/Sex: SYRIAN/MALE, Route: INHALATION, Dose: 0, 30 UG/M3 19 HR/D 5 D/WK FOR 65 WK FOR A TOTAL CADMIUM DOSE OF 0, 180 MG/M3 (STUDY DURATION: 113 WK), Dose: 0, 30 UG/M3 19 HR/D 5 D/WK FOR 65 WK FOR A TOTAL CADMIUM DOSE OF 0, 180 MG/M3 (STUDY DURATION: 113 WK)): inactive; negative | carcinogen call (Species: MOUSE, Strain/Sex: BALB/MALE, Route: SUBCUTANEOUS, Dose: 0, 20 UMOL/KG 1/WK FOR 16 WK (STUDY DURATION: 104 WK), Tumor Site: Type of Lesion: HEMATOPOIETIC SYSTEM: TUMOR): active; positive | carcinogen call (Species: MOUSE, Strain/Sex: BALB/MALE, Route: SUBCUTANEOUS, Dose: 0, 20 UMOL/KG ONCE (STUDY DURATION: 104 WK)): inactive; negative | carcinogen call (Species: MOUSE, Strain/Sex: CD-1/MALE, Route: SUBCUTANEOUS, Dose: 0, 0.03 MMOL/KG BW (5.5 MG/KG BW), SINGLE DOSE, Tumor Site: Type of Lesion: TESTES: INTERSTITIAL CELL TUMOR): active; positive | carcinogen call (Species: MOUSE, Strain/Sex: CD-1/MALE, Route: SUBCUTANEOUS, Dose: 5.5 MG/KG ONCE, Tumor Site: Type of Lesion: TESTES: INTERSTITIAL CELL TUMOR): active; positive | carcinogen call (Species: MOUSE, Strain/Sex: DBA/MALE, Route: SUBCUTANEOUS, Dose: 0, 40 UMOL/KG 1/WK FOR 16 WK (STUDY DURATION: 104 WK), Tumor Site: Type of Lesion: HEMATOPOIETIC SYSTEM: LYMPHOMA): active; positive | carcinogen call (Species: MOUSE, Strain/Sex: DBA/MALE, Route: SUBCUTANEOUS, Dose: 0, 40 UMOL/KG ONCE (STUDY DURATION: 104 WK)): inactive; negative | carcinogen call (Species: MOUSE, Strain/Sex: NFS/MALE, Route: SUBCUTANEOUS, Dose: 0, 40 UMOL/KG 1/WK FOR 16 WK (STUDY DURATION: 104 WK), Tumor Site: Type of Lesion: INJECTION SITE: TUMOR, LIVER: HEPATOCELLULAR ADENOMA OR CARCINOMA): active; positive | carcinogen call (Species: MOUSE, Strain/Sex: NFS/MALE, Route: SUBCUTANEOUS, Dose: 0, 40 UMOL/KG ONCE (STUDY DURATION: 104 WK), Tumor Site: Type of Lesion: LUNG: ADENOMA OR CARCINOMA): active; positive | carcinogen call (Species: MOUSE, Strain/Sex: SWISS/MALE, Route: SUBCUTANEOUS, Dose: 0, 40 UMOL/KG 1/WK FOR 16 WK BEGINNING AT 8 WK OF AGE (STUDY DURATION: 104 WK)): inactive; negative | carcinogen call (Species: MOUSE, Strain/Sex: SWISS/MALE, Route: SUBCUTANEOUS, Dose: 0, 40 UMOL/KG ONCE AT 8 WK OF AGE (STUDY DURATION: 104 WK), Tumor Site: Type of Lesion: ADRENAL GLAND: ADENOMA): active; positive | carcinogen call (Species: RAT, Strain/Sex: CS/MALE, Route: INTRAPROSTATIC, Dose: 0, 0.04 ML OF 0.1 MOLAR SOLUTION (0.73 MG) ONCE (STUDY DURATION: 250 D), Tumor Site: Type of Lesion: PROSTATE: CARCINOMA): active; positive | carcinogen call (Species: RAT, Strain/Sex: F344/MALE, Route: SUBCUTANEOUS, Dose: 0, 3 UMOL/KG BW ONCE, THEN 30 UMOL/KG BW 1X/WK FOR 17 WK BEGINNING 1 WK POST INITIAL DOSE (STUDY DURATION: 18 WK), Tumor Site: Type of Lesion: INJECTION SITE SARCOMA): active; positive | carcinogen call (Species: RAT, Strain/Sex: F344/MALE, Route: SUBCUTANEOUS, Dose: 0, 10, 20, 30 UMOL/KG BW 1X/WK FOR 18 WK (STUDY DURATION: 18 WK), Dose: 0, 10, 20, 30 UMOL/KG BW 1X/WK FOR 18 WK (STUDY DURATION: 18 WK), Tumor Site: Type of Lesion: INJECTION SITE SARCOMA): active; positive | carcinogen call (Species: RAT, Strain/Sex: F344/MALE, Route: SUBCUTANEOUS, Dose: 0, 30 UMOL/KG IN DORSAL THORACIC MIDLINE AREA ONCE (STUDY DURATION: 90 WK), Tumor Site: Type of Lesion: INJECTION SITE: SARCOMA, FIBROSARCOMA): active; positive | carcinogen call (Species: RAT, Strain/Sex: WISTAR/FEMALE, Route: INHALATION, Dose: 0, 30 UG/M3 22 HR/D 7 D/WK FOR 18 MO (STUDY DURATION: 31 MO), Tumor Site: Type of Lesion: LUNG: ALVEOLAR/BRONCHIOLAR ADENOMA, ADENOCARCINOMA): active; positive | carcinogen call (Species: RAT, Strain/Sex: WISTAR/FEMALE, Route: INHALATION, Dose: 0, 30 UG/M3 22 HR/D 7 D/WK FOR 18 MO (STUDY DURATION: 31 MO), Tumor Site: Type of Lesion: LUNG: TUMOR): active; positive | carcinogen call (Species: RAT, Strain/Sex: WISTAR/FEMALE, Route: INHALATION, Dose: 0, 30 UG/M3 AEROSOL 22 HR/D 7 D/WK FOR 18 MO (STUDY DURATION: 31 MO), Tumor Site: Type of Lesion: LUNG: ALVEOLAR/BRONCHIOLAR ADENOMA, SQUAMOUS CELL CARCINOMA): active; positive | carcinogen call (Species: RAT, Strain/Sex: WISTAR/FEMALE, Route: INHALATION, Dose: 0, 90 UG/M3 22 HR/D 7 D/WK FOR 6 MO (STUDY DURATION: 29 MO), Tumor Site: Type of Lesion: LUNG: ADENOCARCINOMA, SQUAMOUS CELL CARCINOMA): active; positive | carcinogen call (Species: RAT, Strain/Sex: WISTAR/FEMALE, Route: INHALATION, Dose: 0, 90 UG/M3 22 HR/D 7 D/WK FOR 6 MO (STUDY DURATION: 29 MO), Tumor Site: Type of Lesion: LUNG: TUMOR): active; positive | carcinogen call (Species: RAT, Strain/Sex: WISTAR/FEMALE, Route: INHALATION, Dose: 0, 90 UG/M3 AEROSOL 22 HR/D 7 D/WK FOR 6 MO (STUDY DURATION: 29 MO), Tumor Site: Type of Lesion: LUNG: ADENOCARCINOMA, SQUAMOUS CELL CARCINOMA): active; positive | carcinogen call (Species: RAT, Strain/Sex: WISTAR/MALE, Route: INHALATION, Dose: 0, 12.5, 25, 50 UG/M3 AEROSOL 23 HR/D 7 D/WK FOR 18 MO (STUDY DURATION: 31 MO), Dose: 0, 12.5, 25, 50 UG/M3 AEROSOL 23 HR/D 7 D/WK FOR 18 MO (STUDY DURATION: 31 MO), Tumor Site: Type of Lesion: LUNG: ADENOMA, ADENOCARCINOMA, EPIDERMOID CARCINOMA): active; positive | carcinogen call (Species: RAT, Strain/Sex: WISTAR/MALE, Route: INHALATION, Dose: 0, 30 MG/M3 AEROSOL 22 HR/D 7 D/WK FOR 18 MO (STUDY DURATION: 30 MO), Tumor Site: Type of Lesion: LUNG: ALVEOLAR/BRONCHIOLAR ADENOMA, ADENOCARCINOMA): active; positive | carcinogen call (Species: RAT, Strain/Sex: WISTAR/MALE, Route: INHALATION, Dose: 0, 30 UG/M3 22 HR/D 7 D/WK FOR 18 MO (STUDY DURATION: 30 MO), Tumor Site: Type of Lesion: LUNG: ALVEOLAR/BRONCHIOLAR ADENOMA, ADENOCARCINOMA): active; positive | carcinogen call (Species: RAT, Strain/Sex: WISTAR/MALE, Route: INHALATION, Dose: 0, 30 UG/M3 22 HR/D 7 D/WK FOR 18 MO (STUDY DURATION: 30 MO), Tumor Site: Type of Lesion: LUNG: TUMOR): active; positive | carcinogen call (Species: RAT, Strain/Sex: WISTAR/MALE, Route: INHALATION, Dose: 0, 90 UG/M3 22 HR/D 7 D/WK FOR 6 MO (STUDY DURATION: 30 MO), Tumor Site: Type of Lesion: LUNG: ALVEOLAR/BRONCHIOLAR ADENOMA, ADENOCARCINOMA, SQUAMOUS CELL CARCINOMA): active; positive | carcinogen call (Species: RAT, Strain/Sex: WISTAR/MALE, Route: INHALATION, Dose: 0, 90 UG/M3 22 HR/D 7 D/WK FOR 6 MO (STUDY DURATION: 30 MO), Tumor Site: Type of Lesion: LUNG: TUMOR): active; positive | carcinogen call (Species: RAT, Strain/Sex: WISTAR/MALE, Route: INHALATION, Dose: 0, 90 UG/M3 AEROSOL 22 HR/D 7 D/WK FOR 6 MO (STUDY DURATION: 30 MO), Tumor Site: Type of Lesion: LUNG: ALVEOLAR/BRONCHIOLAR, ADENOCARCINOMA, SQUAMOUS CELL CARCINOMA): active; positive | carcinogen call (Species: RAT, Strain/Sex: WISTAR/MALE, Route: SUBCUTANEOUS, Dose: 0, 0.03 MMOL/KG BW (5.5 MG/KG BW), SINGLE DOSE, Tumor Site: Type of Lesion: TESTES: INTERSTITIAL CELL TUMOR): active; positive | carcinogen call (Species: RAT, Strain/Sex: WISTAR/MALE, Route: SUBCUTANEOUS, Dose: 0, 3 UMOL/KG BW ONCE, THEN 30 UMOL/KG BW 1X/WK FOR 17 WK BEGINNING 1 WK POST INITIAL DOSE (STUDY DURATION: 18 WK), Tumor Site: Type of Lesion: INJECTION SITE SARCOMA): active; positive | carcinogen call (Species: RAT, Strain/Sex: WISTAR/MALE, Route: SUBCUTANEOUS, Dose: 0, 10, 20, 30 UMOL/KG BW 1X/WK FOR 18 WK (STUDY DURATION: 18 WK), Dose: 0, 10, 20, 30 UMOL/KG BW 1X/WK FOR 18 WK (STUDY DURATION: 18 WK), Tumor Site: Type of Lesion: INJECTION SITE SARCOMA): active; positive | carcinogen call (Species: RAT, Strain/Sex: WISTAR/MALE, Route: SUBCUTANEOUS, Dose: 5.5 MG/KG ONCE, Tumor Site: Type of Lesion: INJECTION SITE: SARCOMA, TESTES: INTERSTITIAL CELL TUMOR): active; positive | carcinogen call (Species: RAT, Strain/Sex: WISTAR, Route: SUBCUTANEOUS, Dose: 0, 0.03 MMOL/KG BW (5.5 MG/KG BW), SINGLE DOSE, OBSERVED 2 YR, Tumor Site: Type of Lesion: INJECTION SITE: SPINDLE CELL SARCOMA, TESTES: INTERSTITIAL CELL TUMOR): active; positive | carcinogen call (Species: RAT, Strain/Sex: WISTAR, Route: SUBCUTANEOUS, Dose: 0, 0.03 MMOL/KG BW (5.5 MG/KG BW), SINGLE DOSE, Tumor Site: Type of Lesion: INJECTION SITE: SARCOMA, TESTES: INTERSTITIAL CELL TUMOR): active; positive | carcinogen call (Species: RAT, Strain/Sex: WISTAR, Route: SUBCUTANEOUS, Dose: 0.02-0.03 MMOL/KG BW (3.7-5.5 MG/KG BW), SINGLE DOSE, Tumor Site: Type of Lesion: INJECTION SITE: FIBROSARCOMA, TESTES: INTERSTITIAL CELL TUMOR): active; positive
